Experimental data reported in patent US20190077795A1, “ARGININE […] INHIBITORS AND USES THEREOF” (Epizyme, Inc., priority 2014, published 2019).
Read-outs that look alike come from different tables or passages of the source.

Tests used:
human PRMT8 = human PRMT8 (Homo sapiens, UniProt Q9NR22); assay: PRMT8 Biochemical Assay; conditions: PRMT8 IC50 (uM), peptide substrate, 3H-SAM Flashplate assay
Text: S-adenosylmethionine (SAM), S-adenosylhomocysteine (SAH), bicine, Tween20, dimethylsulfoxide (DMSO), bovine skin gelatin (BSG), isopropyl-3-D-thiogalactopyranoside (IPTG), and Tris(2-carboxyethyl)phosphine hydrochloride solution (TCEP) were purchased from Sigma-Aldrich at the highest level of purity possible. ^3H-SAM was purchase from American Radiolabeled Chemicals with a specific activity of 80 Ci/mmol. 384-well streptavidin Flashplates were purchased from PerkinElmer.
E. coli (BL21(DE3) Gold, Stratagene) made competent by the CaCl2 method were transformed with the PRMT8 construct and ampicillin selection. Protein over-expression was accomplished by growing the PRMT8 expressing E. coli clone and inducing expression with 0.3 mM IPTG at 16° C. The culture was grown for 12 hours, harvested by centrifugation, and stored at −80° C. for purification.
GST-tagged PRMT8 was eluted with 50 mM Tris, 2 mM glutathione, pH 7.8. Pooled fractions were cleaved by thrombin (10U) and dialysed in buffer A. GST was removed by reloading the cleaved protein sample onto glutathione sepharose column and PRMT8 was collected in the flow-through fractions. PRMT8 was purified further by ceramic hydroxyapatite chromatography. The column was washed with 50 mM phosphate buffer, 100 mM NaCl, 5% glycerol, 5 mM β-mercaptoethanol, pH 7.8 and PRMT8 was eluted by 100 mM phosphate in the same buffer. Protein was concentrated and buffer was exchanged to 50 mM Tris, 300 mM NaCl, 10% glycerol, 5 mM β-mercaptoethanol, pH 7.8 by ultrafiltration.
General Procedure for PRMT8 Enzyme Assays on Peptide Substrates.
The assays were all performed in a buffer consisting of 20 mM Bicine (pH=7.6), 1 mM TCEP, 0.005% BSG, and 0.002% Tween 20, prepared on the day of use. […] DMSO (1 ul) was added to Columns 11, 12, 23, 24, rows A-H for the maximum signal control and 1 ul of SAH, a known product and inhibitor of PRMT8, was added to columns 11, 12, 23, 24, rows I-P for the minimum signal control. A cocktail (40 ul) containing the PRMT8 enzyme was added by Multidrop Combi (Thermo-Fisher). The compounds were allowed to incubate with PRMT8 for 30 min at room temperature, then a cocktail (10 ul) containing ^3H-SAM and peptide was added to initiate the reaction (final volume=51 ul). […] The assays were stopped by the addition of non-radiolabeled SAM (10 ul) to a final concentration of 400 uM, which dilutes the ^3H-SAM to a level where its incorporation into the peptide substrate is no longer detectable. 50 ul of the reaction in the 384-well polypropylene plate was then transferred to a 384-well Flashplate and the biotinylated peptides were allowed to bind to the streptavidin surface for at least 1 hour before being washed once with 0.1% Tween20 in a Biotek ELx405 plate washer. The plates were then read in a PerkinElmer TopCount plate reader to measure the quantity of ^3H-labeled peptide bound to the Flashplate surface, measured as disintegrations per minute (dpm) or alternatively, referred to as counts per minute (cpm).
Where dpm=disintegrations per minute, cmpd=signal in assay well, and min and max are the respective minimum and maximum signal controls.
Where top and bottom are the normally allowed to float, but may be fixed at 100 or 0 respectively in a 3-parameter fit. The Hill Coefficient normally allowed to float but may also be fixed at 1 in a 3-parameter fit. Y is the % inhibition and X is the compound concentration.

human PRMT6 = target: T1, human PRMT6 (Homo sapiens, UniProt Q96LA8); assay: PRMT6 Biochemical Assay
T1 construct: Flag-PRMT6-His; made in house; host or cells: HEK 293F cells (BacMam baculovirus, pFastBacMam)
T1 sequence (Q96LA8 with tags, fused parts or gaps): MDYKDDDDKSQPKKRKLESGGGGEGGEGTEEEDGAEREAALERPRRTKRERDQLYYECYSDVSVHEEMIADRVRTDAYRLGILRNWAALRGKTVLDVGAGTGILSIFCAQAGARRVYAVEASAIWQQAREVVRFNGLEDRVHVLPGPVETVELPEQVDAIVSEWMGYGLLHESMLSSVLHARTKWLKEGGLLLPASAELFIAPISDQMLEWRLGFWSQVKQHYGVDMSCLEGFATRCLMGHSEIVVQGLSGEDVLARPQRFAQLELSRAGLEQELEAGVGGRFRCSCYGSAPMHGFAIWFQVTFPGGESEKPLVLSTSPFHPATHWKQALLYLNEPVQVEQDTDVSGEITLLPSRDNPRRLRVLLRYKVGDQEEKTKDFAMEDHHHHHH

human PRMT1 = target: T2, human PRMT1 (Homo sapiens, UniProt Q99873); assay: PRMT1 Biochemical Assay; conditions: peptide substrate, 3H-SAM Flashplate assay; read-out: PRMT1 IC50
T2 construct: GST-tagged PRMT1; made in house; host or cells: High Five insect cells (baculovirus, pFastBac1)
T2 sequence (Q99873 with tags, fused parts or gaps): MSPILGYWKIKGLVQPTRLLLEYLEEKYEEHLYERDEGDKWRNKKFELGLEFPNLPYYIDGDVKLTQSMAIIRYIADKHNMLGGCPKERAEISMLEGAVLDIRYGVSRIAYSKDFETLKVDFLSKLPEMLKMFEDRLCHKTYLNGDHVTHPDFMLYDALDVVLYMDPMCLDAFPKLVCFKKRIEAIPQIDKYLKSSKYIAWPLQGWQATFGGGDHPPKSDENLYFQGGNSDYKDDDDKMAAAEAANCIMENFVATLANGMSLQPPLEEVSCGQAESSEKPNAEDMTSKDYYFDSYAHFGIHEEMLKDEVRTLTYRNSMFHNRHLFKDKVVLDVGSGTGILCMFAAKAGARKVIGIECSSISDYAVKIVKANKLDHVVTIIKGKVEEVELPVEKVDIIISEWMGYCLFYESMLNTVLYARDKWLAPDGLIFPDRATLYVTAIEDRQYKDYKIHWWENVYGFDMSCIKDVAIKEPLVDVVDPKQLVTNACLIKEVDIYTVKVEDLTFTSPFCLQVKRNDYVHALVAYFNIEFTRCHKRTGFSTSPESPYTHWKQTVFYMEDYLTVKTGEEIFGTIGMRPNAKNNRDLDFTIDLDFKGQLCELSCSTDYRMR
Outline: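 GST-tagged PRMT1 from baculovirus-infected cells, preincubated with compounds 30 min at room temperature in 20 mM Bicine pH 7.6, 1 mM TCEP, 0.005% BSG, 0.002% Tween 20. Reaction started with ³H-SAM plus biotinylated peptide, stopped with 300 µM cold SAM.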

[1] = tested on: mono-methyl arginine in RKO cells; assay: RKO Methylation Assay, In Cell Western (ICW); format: cell-based; conditions: 72 hours
[2] = peptide substrate, 3H-SAM Flashplate assay, read-out: PRMT6 IC50

Chain of human PRMT8 (Q9NR22 whole entry): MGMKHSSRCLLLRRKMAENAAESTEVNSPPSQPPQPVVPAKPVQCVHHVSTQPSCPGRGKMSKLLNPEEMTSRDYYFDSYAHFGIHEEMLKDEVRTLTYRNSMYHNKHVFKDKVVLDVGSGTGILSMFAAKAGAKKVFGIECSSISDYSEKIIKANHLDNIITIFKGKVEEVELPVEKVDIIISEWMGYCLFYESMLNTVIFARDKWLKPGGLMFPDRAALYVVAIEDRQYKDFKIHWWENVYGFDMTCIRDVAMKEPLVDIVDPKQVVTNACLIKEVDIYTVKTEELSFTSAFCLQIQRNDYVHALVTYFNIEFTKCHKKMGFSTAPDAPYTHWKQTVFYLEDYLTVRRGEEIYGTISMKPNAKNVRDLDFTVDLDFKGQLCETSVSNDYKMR

SMILES	IC50 (human PRMT8)	IC50 (human PRMT6; [2])	IC50 (human PRMT1)	ICW EC30 [1]	IC50 (human PRMT6; PRMT6 IC50 (uM))
CNCCN(C)Cc1c[nH]nc1-c1ccc(OCCOc2ccc(C(F)(F)F)cc2)cc1 [Compound 138]	0.0366 µM	0.00977 µM	0.00608 µM	0.3278 µM	
CCOCC(C)c1cc(OCCOC)cc(-c2n[nH]cc2CN(C)CCNC)c1 (stereo not drawn) [Compound 132]	0.15 µM	> 10 µM	0.0494 µM	3.608 µM	
CCN(c1ccc(-c2n[nH]cc2CN(C)CCNC)cn1)C1CCOCC1 [Compound 127]	0.467 µM	3.45 µM	0.0459 µM	9.19 µM	
CNCCN(C)Cc1c[nH]nc1-c1cc(F)c(Cl)c(C(F)(F)F)c1 [Compound 27]	0.037 µM	0.0214 µM	0.00675 µM	0.377 µM	
CNCCN(C)Cc1ccnn1-c1ccc(OC(C)C)cc1 [Compound 80]	0.0494 µM	0.114 µM	0.0198 µM	0.411 µM	
CNCCN(C)Cc1c[nH]nc1-c1ccc(N2CCCC2=O)cc1 [Compound 99]	0.127 µM	0.0633 µM	0.0297 µM	3.944 µM	
CNCCN(C)Cc1c[nH]nc1-c1cc(F)c(OCCOC)c(C(F)(F)F)c1 [Compound 103]	0.0421 µM	0.0274 µM	0.0333 µM	0.85 µM	
CNCCN(C)Cc1c[nH]nc1-c1ccc(OCCC(O)CO)cc1 (stereo not drawn) [Compound 125]	0.269 µM	0.0548 µM	0.0455 µM	10.45 µM	
CNCCN(C)Cc1c[nH]nc1-c1ccc(N(C)CCCOc2ccc(OC)cc2)cc1 [Compound 10]	0.0124 µM	0.00825 µM	0.00521 µM	0.1762 µM	
C=C(C)COc1c(Cl)cc(-c2n[nH]cc2CN(C)CCNC)cc1Cl [Compound 7]	0.0124 µM	0.0131 µM	0.00486 µM	0.09154 µM	
CNCCN(C)Cc1c[nH]nc1-c1ccc(N(C)CCOc2ccc(OC)cc2)cc1 [Compound 41]	0.0334 µM	0.00896 µM	0.0088 µM	0.3514 µM	
CNCCN(C)Cc1c[nH]nc1-c1ccc(OCCCOC)c(OC2CCOCC2)c1 [Compound 64]	0.249 µM	0.0535 µM	0.0139 µM	4.628 µM	
CNCCN(C)Cc1c[nH]nc1-c1ccc(OC(C)C)nc1 [Compound 83]	0.0337 µM	0.069 µM	0.0205 µM	0.2 µM	
CNCCN(C)Cc1c[nH]nc1-c1ccc(N(C)CCCOc2ccc(OC)cc2)cc1 [Compound 12]	0.0264 µM	0.0146 µM	0.00525 µM	0.4498 µM	
CNCCN(C)Cc1c[nH]nc1-c1ccc(OCCOc2cccc(N3CCOCC3)c2)cc1 [Compound 49]	0.0337 µM	0.00705 µM	0.0105 µM	0.7468 µM	
CNCCN(C)Cc1c[nH]nc1-c1ccc2oc(C(C)C)nc2c1 [Compound 81]	0.0947 µM	0.0445 µM	0.0199 µM	0.927 µM	
CNCCN(C)Cc1c[nH]nc1-c1ccc(OCCOc2ccc(N3CCOCC3)cc2)cc1 [Compound 36]	0.0244 µM	0.00635 µM	0.00764 µM	0.1271 µM	
CNCCN(C)Cc1c[nH]nc1-c1ccc(C#N)cc1 [Compound 74]	0.0231 µM		0.0161 µM	0.541 µM	0.027 µM
CNCCN(C)Cc1c[nH]nc1-c1ccc(OCCOc2ccc(C(C)C)cc2)cc1 [Compound 144]	0.03 µM	0.00574 µM	0.00643 µM	0.6546 µM	
CNCCN(C)Cc1c[nH]nc1-c1cc(C)c(OCC2CC2)c(C(F)(F)F)c1 [Compound 43]	0.015 µM		0.00897 µM	0.475 µM	0.0326 µM
CNCCN(C)Cc1c[nH]nc1-c1ccc(N(C)C2CCOCC2)cc1 [Compound 111]	0.252 µM	0.955 µM	0.0367 µM	1.04 µM	
CNCCN(C)Cc1c[nH]nc1-c1cc(Cl)c(OCC(C)C)c(Cl)c1 [Compound 1]	0.0173 µM		0.00351 µM	0.38 µM	0.0104 µM
CNCCN(C)Cc1ccnn1C1CCC2(CCOCC2)CC1 [Compound 59]	0.042 µM	0.0347 µM	0.0122 µM	0.2464 µM	
CN(CCN)Cc1c[nH]nc1-c1ccc2c(c1)OCC(=O)N2 [Compound 152]	0.459 µM	0.00828 µM	0.0654 µM	>20 µM	

SMILES	IC50 (human PRMT8)	IC50 (human PRMT6; [2])	IC50 (human PRMT1)	ICW EC30 [1]	IC50 (human PRMT6; PRMT6 IC50 (uM))
CNCCN(C)Cc1cnn(C)c1-c1ccc(OC2CCOCC2)cc1 [Compound 88]	0.0267 µM	0.0235 µM	0.023 µM	1.236 µM	
CNCCN(C)Cc1c[nH]nc1-c1ccc(CC(C)C)cc1 [Compound 37]	0.0136 µM		0.00804 µM	0.082 µM	0.0169 µM
CNCCN(C)Cc1c[nH]nc1-c1ccc(OCCOc2ccc(OC(F)(F)F)cc2)cc1 [Compound 140]	0.0526 µM	0.00703 µM	0.00683 µM	0.47 µM	
CNCCN(C)Cc1c[nH]nc1-c1cc(C(=O)NCCOC)cc(C(F)(F)F)c1 [Compound 101]	0.342 µM	2.66 µM	0.0309 µM	11.123 µM	
CNCCN(C)Cc1c[nH]nc1-c1ccc(N2CC3CCCC3C2)nc1 (stereo not drawn) [Compound 58]	0.0254 µM	0.00835 µM	0.0119 µM	0.4165 µM	
CNCCN(C)Cc1c[nH]nc1-c1ccc(OC2CCC(OC)CC2)cc1 (stereo not drawn) [Compound 86]	0.0686 µM	0.0196 µM	0.0225 µM	0.836 µM	
CNCCN(C)Cc1c[nH]nc1-c1ccc(OCCOc2ccc(OC(C)C)cc2)cc1 [Compound 33]	0.0233 µM	0.00562 µM	0.00737 µM	0.232 µM	
CNCCN(C)Cc1c[nH]nc1-c1cc(OCCC(C)(C)O)cc(C(F)(F)F)c1 [Compound 93]	0.326 µM	3.38 µM	0.0248 µM	4.55 µM	
CNCCN(C)Cc1c[nH]nc1-c1cc(CC(C)C)cc(OCCOC)c1 [Compound 71]	0.0452 µM	4.39 µM	0.0153 µM	0.68 µM	
CNCCN(C)Cc1cnn(C)c1-c1cccc(OC2CC2)c1 [Compound 126]	0.0446 µM	0.0737 µM	0.0455 µM	1.272 µM	
CNCCN(C)Cc1ccnn1C1CCC2(CCCO2)CC1 (stereo not drawn) [Compound 63]	0.0445 µM	0.0317 µM	0.0131 µM	0.1727 µM	
CNCCN(C)Cc1c[nH]nc1-c1ccc(OC2CCOCC2)nc1 [Compound 119]	0.123 µM	0.0329 µM	0.0415 µM	1.292 µM	
CNCCN(C)Cc1c[nH]nc1-c1ccc(OC2CC(OCCN3CCOCC3)C2)cc1 (stereo not drawn) [Compound 147]	0.162 µM	0.0164 µM	0.111 µM	4.237 µM	
COCCOc1cc(-c2n[nH]cc2CN(C)CCN)cc(C(F)(F)F)c1 [Compound 94]	0.158 µM	0.823 µM	0.0255 µM	6.823 µM	
CNCCN(C)Cc1c[nH]nc1-c1cc(OCCOC)cc(C(C)(C)C)c1 [Compound 109]	0.203 µM	7.12 µM	0.0361 µM	1.928 µM	
CNCCN(C)Cc1c[nH]nc1-c1cc(OCCOC)cc(OC(F)(F)F)c1 [Compound 96]	0.108 µM	5.13 µM	0.0267 µM	1.762 µM	
CNCCN(C)Cc1c[nH]nc1-c1ccc(N2CCCC2)nc1 [Compound 78]	0.0309 µM		0.0183 µM	0.7571 µM	0.0395 µM
CNCCN(C)Cc1c[nH]nc1-c1ccc(N(C)CCCOc2ccc(OC)cc2)cc1 [Compound 136]	0.0124 µM	0.00825 µM	0.00521 µM	0.1762 µM	
CCOCC(C)(C)c1cc(OCCOC)cc(-c2n[nH]cc2CN(C)CCNC)c1 [Compound 122]	0.371 µM	> 10 µM	0.043 µM	6.626 µM	
CNCCN(C)Cc1c[nH]nc1-c1ccc(N2CCCCC2)nc1 [Compound 66]	0.0371 µM	0.0408 µM	0.0142 µM	0.3931 µM	
CNCCN(C)Cc1c[nH]nc1-c1cnc(OCCOC)c(C(F)(F)F)c1 [Compound 79]	0.171 µM	0.105 µM	0.0198 µM	2.611 µM	
COCCOc1cc(-c2n[nH]cc2CN(C)CCN)cc(C(F)F)c1 [Compound 29]	0.112 µM	0.276 µM	0.00694 µM	5.437 µM	
CNCCN(C)Cc1c[nH]nc1-c1ccc(OCCOc2ccc(OCCOC)cc2)cc1 [Compound 72]	0.035 µM	0.0101 µM	0.0153 µM	0.163 µM	
CNCCN(C)Cc1c[nH]nc1-c1ccc(OCCOc2cccc(OCCC3CCOCC3)c2)cc1 [Compound 14]	0.0146 µM	0.00518 µM	0.00549 µM	0.3473 µM	
